ChEMBL document CHEMBL3991601, “The target landscape of clinical kinase drugs” (Science, 2017)
The source made the active and inactive calls. Rule as the data show it, for most assays here: actives have a measured Kd and inactives only a lower limit.

Tests used:
[1] = molecular target: Dual specificity mitogen-activated protein kinase kinase 1 (Homo sapiens, UniProt Q02750)
[2] = molecular target: Mitogen-activated protein kinase kinase kinase 20 (Homo sapiens, UniProt Q9NYL2)
[3] = molecular target: Glycogen synthase kinase-3 alpha (Homo sapiens, UniProt P49840)
[4] = molecular target: Epithelial discoidin domain-containing receptor 1 (Homo sapiens, UniProt Q08345)
[5] = molecular target: T1, General transcription and DNA repair factor IIH helicase subunit XPD (Homo sapiens, UniProt P18074); details: read-out: Kd apparent; k-562, colo 205, sk-n-be(2) and mv-4-11
T1 sequence (P18074 whole entry): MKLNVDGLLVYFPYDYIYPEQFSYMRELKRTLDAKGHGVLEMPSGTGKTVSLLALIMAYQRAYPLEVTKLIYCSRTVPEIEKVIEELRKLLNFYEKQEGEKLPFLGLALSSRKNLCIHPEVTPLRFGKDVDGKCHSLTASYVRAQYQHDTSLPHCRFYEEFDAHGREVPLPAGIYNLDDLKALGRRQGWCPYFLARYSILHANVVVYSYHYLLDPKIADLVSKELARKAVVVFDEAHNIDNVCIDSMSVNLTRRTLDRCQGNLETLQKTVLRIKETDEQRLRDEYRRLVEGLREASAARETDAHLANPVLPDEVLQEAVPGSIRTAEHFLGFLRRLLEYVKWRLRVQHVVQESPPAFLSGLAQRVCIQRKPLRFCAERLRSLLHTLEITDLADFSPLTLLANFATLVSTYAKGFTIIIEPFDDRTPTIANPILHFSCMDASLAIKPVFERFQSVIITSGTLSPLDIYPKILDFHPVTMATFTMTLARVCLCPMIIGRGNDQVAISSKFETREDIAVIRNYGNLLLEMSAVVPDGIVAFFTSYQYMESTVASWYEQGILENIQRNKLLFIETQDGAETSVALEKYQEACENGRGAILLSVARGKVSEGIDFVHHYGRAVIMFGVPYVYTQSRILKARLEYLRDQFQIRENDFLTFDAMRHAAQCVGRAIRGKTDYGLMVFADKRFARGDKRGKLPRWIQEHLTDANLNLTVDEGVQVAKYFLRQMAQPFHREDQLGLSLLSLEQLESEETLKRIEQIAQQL

[6] = molecular target: T2, Aurora kinase A (Homo sapiens, UniProt O14965)
T2 sequence (O14965 whole entry): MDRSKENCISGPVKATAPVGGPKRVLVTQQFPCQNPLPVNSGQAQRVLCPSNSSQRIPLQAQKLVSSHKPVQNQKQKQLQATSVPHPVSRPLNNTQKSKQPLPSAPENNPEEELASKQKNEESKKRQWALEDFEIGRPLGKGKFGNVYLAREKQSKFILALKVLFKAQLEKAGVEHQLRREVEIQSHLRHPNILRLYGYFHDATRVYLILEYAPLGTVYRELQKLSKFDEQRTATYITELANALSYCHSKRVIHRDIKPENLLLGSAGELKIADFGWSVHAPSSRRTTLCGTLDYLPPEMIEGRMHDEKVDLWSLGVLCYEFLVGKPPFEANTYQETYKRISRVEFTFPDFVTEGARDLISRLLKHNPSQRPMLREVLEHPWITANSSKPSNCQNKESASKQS

[7] = molecular target: T3, AarF domain-containing protein kinase 1 (Homo sapiens, UniProt Q86TW2)
T3 sequence (Q86TW2 whole entry): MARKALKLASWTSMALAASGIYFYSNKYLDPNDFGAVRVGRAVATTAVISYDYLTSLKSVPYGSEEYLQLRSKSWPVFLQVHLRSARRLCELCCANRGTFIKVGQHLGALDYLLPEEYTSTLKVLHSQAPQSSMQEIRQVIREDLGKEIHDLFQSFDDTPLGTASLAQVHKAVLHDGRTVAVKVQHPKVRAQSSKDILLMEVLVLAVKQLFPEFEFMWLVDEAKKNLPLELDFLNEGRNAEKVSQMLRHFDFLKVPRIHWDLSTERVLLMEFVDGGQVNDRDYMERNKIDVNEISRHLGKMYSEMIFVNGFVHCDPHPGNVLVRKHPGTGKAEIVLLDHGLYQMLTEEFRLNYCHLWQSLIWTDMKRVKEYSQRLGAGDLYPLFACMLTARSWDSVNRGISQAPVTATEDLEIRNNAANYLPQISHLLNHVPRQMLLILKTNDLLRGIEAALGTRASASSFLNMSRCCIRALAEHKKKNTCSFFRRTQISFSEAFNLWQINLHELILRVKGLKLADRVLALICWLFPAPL

[8] = molecular target: T4, Dual specificity mitogen-activated protein kinase kinase 3 (Homo sapiens, UniProt P46734)
T4 sequence (P46734 whole entry): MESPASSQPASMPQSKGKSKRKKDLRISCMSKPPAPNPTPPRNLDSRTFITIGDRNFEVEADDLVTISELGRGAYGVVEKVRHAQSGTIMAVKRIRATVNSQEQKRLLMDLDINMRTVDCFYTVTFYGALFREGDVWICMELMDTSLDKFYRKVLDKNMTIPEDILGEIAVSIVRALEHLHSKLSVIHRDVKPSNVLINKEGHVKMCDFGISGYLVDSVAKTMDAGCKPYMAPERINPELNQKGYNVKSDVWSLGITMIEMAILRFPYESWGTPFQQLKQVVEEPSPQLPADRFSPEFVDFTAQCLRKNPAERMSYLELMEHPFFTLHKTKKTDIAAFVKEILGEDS

[9] = molecular target: Serine/threonine-protein kinase SIK3 (Homo sapiens, UniProt Q9Y2K2)
[10] = molecular target: Tyrosine-protein kinase ABL2 (Homo sapiens, UniProt P42684)
[11] = molecular target: Platelet-derived growth factor receptor beta (Homo sapiens, UniProt P09619)
[12] = molecular target: Deoxycytidine kinase (Homo sapiens, UniProt P27707)
[13] = molecular target: Tyrosine-protein kinase Yes (Homo sapiens, UniProt P07947)
[14] = molecular target: TGF-beta receptor type-2 (Homo sapiens, UniProt P37173)
Also: in the data inactive means no Kd found up to 30 µM.

Chain of Tyrosine-protein kinase Yes (P07947 whole entry): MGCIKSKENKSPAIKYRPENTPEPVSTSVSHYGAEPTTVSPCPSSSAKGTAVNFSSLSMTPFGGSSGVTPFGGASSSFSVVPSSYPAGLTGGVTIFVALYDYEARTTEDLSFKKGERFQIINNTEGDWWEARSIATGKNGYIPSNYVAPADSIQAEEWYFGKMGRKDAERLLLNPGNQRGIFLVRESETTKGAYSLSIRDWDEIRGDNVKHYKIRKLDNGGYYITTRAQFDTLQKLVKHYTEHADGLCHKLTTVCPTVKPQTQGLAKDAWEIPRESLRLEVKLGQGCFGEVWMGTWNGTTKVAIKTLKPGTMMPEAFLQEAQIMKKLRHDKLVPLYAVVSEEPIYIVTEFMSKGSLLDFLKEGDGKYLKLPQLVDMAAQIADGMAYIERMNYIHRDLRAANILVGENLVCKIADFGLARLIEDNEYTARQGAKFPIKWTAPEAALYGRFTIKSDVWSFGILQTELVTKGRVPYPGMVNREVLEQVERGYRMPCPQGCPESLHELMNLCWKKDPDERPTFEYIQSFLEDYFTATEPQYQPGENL
Chain of Deoxycytidine kinase (P27707 whole entry): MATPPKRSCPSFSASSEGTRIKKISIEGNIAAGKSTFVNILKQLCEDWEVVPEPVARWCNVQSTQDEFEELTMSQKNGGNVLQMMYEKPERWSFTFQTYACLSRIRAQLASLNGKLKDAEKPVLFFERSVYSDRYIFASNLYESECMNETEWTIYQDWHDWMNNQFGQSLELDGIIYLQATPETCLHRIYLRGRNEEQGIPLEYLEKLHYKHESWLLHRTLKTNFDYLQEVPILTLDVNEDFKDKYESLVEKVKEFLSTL
Chain of TGF-beta receptor type-2 (P37173 whole entry): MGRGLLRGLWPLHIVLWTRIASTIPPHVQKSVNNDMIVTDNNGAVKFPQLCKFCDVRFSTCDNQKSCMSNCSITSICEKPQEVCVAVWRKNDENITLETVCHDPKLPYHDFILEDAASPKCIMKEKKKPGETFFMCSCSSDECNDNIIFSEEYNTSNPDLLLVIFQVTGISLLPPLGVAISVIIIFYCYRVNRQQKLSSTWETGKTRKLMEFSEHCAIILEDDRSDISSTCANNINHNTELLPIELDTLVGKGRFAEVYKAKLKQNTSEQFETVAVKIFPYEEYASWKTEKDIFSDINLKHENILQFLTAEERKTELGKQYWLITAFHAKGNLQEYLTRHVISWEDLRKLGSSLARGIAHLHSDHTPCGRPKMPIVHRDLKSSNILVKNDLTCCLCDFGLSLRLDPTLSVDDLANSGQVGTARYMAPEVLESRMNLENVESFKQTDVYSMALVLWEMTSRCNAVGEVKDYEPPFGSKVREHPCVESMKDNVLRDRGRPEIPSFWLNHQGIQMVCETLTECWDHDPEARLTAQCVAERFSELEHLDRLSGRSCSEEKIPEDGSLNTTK
Chain of Mitogen-activated protein kinase kinase kinase 20 (Q9NYL2 whole entry): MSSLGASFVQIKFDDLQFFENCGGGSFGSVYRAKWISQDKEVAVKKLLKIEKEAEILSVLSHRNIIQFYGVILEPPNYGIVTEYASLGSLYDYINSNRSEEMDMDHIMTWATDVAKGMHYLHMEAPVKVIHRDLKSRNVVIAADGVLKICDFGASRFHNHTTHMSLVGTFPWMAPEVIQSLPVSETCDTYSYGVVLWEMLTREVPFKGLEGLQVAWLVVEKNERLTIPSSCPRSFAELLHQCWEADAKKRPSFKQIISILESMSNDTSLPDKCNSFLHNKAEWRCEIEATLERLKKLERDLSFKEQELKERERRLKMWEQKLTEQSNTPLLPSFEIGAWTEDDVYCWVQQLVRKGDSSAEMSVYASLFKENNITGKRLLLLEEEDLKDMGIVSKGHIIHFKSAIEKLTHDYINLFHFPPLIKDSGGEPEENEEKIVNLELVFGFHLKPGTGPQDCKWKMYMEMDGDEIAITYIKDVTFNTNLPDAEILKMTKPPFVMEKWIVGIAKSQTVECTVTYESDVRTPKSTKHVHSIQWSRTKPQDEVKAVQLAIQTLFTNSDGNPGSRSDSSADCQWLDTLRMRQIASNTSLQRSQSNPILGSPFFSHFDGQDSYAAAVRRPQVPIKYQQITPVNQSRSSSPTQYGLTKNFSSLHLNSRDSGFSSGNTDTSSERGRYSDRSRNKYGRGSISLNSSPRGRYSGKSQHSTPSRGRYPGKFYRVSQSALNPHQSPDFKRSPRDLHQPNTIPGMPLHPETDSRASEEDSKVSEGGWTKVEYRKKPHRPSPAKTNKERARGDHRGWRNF
Chain of Epithelial discoidin domain-containing receptor 1 (Q08345 whole entry, the tested form may be a part): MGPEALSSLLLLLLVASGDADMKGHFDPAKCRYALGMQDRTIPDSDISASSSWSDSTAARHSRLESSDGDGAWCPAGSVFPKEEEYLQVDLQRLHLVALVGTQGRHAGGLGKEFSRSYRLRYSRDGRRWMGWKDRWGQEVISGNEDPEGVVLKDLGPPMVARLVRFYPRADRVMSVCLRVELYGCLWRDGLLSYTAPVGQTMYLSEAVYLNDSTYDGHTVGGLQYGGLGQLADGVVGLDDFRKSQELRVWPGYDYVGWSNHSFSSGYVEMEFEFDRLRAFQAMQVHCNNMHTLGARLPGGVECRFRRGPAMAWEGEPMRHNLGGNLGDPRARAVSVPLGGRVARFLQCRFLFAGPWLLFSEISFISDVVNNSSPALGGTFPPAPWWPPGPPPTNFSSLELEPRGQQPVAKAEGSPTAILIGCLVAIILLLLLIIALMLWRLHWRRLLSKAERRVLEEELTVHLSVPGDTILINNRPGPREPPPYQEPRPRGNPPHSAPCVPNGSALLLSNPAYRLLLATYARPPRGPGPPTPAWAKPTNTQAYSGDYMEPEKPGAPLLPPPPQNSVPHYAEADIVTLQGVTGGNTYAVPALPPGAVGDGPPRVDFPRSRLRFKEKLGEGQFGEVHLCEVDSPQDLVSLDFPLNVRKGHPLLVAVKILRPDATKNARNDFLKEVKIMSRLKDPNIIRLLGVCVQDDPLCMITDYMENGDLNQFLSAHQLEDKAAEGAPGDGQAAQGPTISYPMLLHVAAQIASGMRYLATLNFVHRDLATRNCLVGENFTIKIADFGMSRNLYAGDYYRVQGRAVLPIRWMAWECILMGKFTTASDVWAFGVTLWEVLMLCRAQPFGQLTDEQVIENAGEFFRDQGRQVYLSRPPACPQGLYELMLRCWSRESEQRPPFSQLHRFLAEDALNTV
Chain of Platelet-derived growth factor receptor beta (P09619 whole entry): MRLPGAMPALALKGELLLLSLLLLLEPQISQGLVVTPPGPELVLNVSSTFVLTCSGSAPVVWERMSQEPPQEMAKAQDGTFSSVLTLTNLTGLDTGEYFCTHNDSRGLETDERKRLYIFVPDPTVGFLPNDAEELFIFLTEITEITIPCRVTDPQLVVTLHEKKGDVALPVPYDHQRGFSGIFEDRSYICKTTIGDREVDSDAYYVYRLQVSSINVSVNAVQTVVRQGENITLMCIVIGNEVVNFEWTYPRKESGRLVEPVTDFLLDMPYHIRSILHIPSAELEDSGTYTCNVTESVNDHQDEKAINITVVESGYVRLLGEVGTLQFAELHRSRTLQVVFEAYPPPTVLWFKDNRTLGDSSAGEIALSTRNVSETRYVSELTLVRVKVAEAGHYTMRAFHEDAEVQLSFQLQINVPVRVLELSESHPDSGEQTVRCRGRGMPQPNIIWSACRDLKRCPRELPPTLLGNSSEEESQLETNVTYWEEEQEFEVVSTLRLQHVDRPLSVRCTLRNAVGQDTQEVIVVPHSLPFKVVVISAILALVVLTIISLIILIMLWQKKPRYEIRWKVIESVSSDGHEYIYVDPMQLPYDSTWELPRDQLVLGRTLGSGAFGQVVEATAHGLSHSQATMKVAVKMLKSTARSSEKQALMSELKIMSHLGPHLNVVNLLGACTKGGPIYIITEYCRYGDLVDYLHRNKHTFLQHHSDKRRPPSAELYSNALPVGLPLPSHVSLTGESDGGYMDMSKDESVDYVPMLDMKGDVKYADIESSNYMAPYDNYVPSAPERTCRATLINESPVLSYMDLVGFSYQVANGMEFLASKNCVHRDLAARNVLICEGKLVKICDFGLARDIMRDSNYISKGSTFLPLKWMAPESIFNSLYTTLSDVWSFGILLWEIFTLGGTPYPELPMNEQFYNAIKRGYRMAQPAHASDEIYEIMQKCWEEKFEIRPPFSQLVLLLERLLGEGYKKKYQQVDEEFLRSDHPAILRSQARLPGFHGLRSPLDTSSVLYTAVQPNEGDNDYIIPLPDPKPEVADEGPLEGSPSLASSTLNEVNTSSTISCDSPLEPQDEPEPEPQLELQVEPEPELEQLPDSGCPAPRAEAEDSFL
Chain of Glycogen synthase kinase-3 alpha (P49840 whole entry, the tested form may be a part): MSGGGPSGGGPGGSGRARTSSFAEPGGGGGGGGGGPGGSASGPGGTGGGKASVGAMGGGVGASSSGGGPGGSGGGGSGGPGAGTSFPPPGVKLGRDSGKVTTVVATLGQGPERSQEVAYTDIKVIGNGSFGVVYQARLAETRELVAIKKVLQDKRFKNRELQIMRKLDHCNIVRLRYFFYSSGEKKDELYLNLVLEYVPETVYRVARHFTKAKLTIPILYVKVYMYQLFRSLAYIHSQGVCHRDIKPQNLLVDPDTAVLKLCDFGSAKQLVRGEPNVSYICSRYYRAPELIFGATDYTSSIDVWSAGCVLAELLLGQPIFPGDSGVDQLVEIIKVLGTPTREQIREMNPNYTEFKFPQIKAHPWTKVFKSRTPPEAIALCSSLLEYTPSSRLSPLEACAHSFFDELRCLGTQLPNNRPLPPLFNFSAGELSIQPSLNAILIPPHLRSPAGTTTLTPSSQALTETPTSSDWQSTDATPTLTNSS

Kd [1] | Kd [2] | Kd [3] | Kd [4] | Kd [5] | Kd [6] | Kd [7] | Kd [8] | Kd [9] | Kd [10] | Kd [11] | Kd [12] | Kd [13] | Kd [14] | Structure (SMILES)
> 30 µM (inactive) | > 30 µM (inactive) | > 30 µM (inactive) | > 30 µM (inactive) | > 30 µM (inactive) | > 30 µM (inactive) | > 30 µM (inactive) | 3.08 µM (active) | > 30 µM (inactive) | > 30 µM (inactive) | > 30 µM (inactive) | > 30 µM (inactive) | > 30 µM (inactive) |  | C[C@H]1CNCCCN1S(=O)(=O)c1cccc2cncc(F)c12
3.01 µM (active) | > 30 µM (inactive) | > 30 µM (inactive) | 0.881 µM (active) | > 30 µM (inactive) | > 30 µM (inactive) | > 30 µM (inactive) | > 30 µM (inactive) | > 30 µM (inactive) | > 30 µM (inactive) |  | 6.17 µM | > 30 µM (inactive) | > 30 µM (inactive) | Cc1nc2cc(-c3nn(C(C)C)c4ncnc(N)c34)ccc2o1
> 30 µM (inactive) | > 30 µM (inactive) | > 30 µM (inactive) | > 30 µM (inactive) | > 30 µM (inactive) | > 30 µM (inactive) | > 30 µM (inactive) | > 30 µM (inactive) | > 30 µM (inactive) | > 30 µM (inactive) | > 30 µM (inactive) | > 30 µM (inactive) | > 30 µM (inactive) |  | Cc1nc(NC(=O)N2CCC[C@H]2C(N)=O)sc1-c1ccnc(C(C)(C)C(F)(F)F)c1 [ALPELISIB]
3.31 µM (active) | > 30 µM (inactive) | > 30 µM (inactive) | 0.11 µM (active) | > 30 µM (inactive) |  | > 30 µM (inactive) | > 30 µM (inactive) | > 30 µM (inactive) | > 30 µM (inactive) | > 30 µM (inactive) | > 30 µM (inactive) | > 30 µM (inactive) | > 30 µM (inactive) | Cc1csc(-c2nnc(Nc3ccc(Oc4ncccc4-c4ccnc(N)n4)cc3)c3ccccc23)c1 [AMG-900]
> 30 µM (inactive) | 0.998 µM (active) | > 30 µM (inactive) | 0.124 µM (active) | > 30 µM (inactive) | > 30 µM (inactive) | > 30 µM (inactive) | > 30 µM (inactive) | > 30 µM (inactive) | 0.03 µM (active) |  | > 30 µM (inactive) | > 30 µM (inactive) | > 30 µM (inactive) | COc1cc2ncnc(Oc3cccc(NC(=O)Nc4cc(C(C)(C)C(F)(F)F)on4)c3)c2cc1OC [CEP-32496]
> 30 µM (inactive) | > 30 µM (inactive) | > 30 µM (inactive) | 0.008 µM (active) |  |  | 22.7 µM (active) | > 30 µM (inactive) |  | > 30 µM (inactive) | > 30 µM (inactive) | 2.16 µM (active) | > 30 µM (inactive) | > 30 µM (inactive) | CCn1cc(-c2ccnc3[nH]c(-c4cccc(CN(C)C)c4)cc23)c(-c2ccc(NC(=O)N(C)C)cc2)n1 [GSK-1070916]
> 30 µM (inactive) | > 30 µM (inactive) | > 30 µM (inactive) | 4.17 µM (active) |  | > 30 µM (inactive) | > 30 µM (inactive) | > 30 µM (inactive) | 0.266 µM (active) | 3.75 µM |  | > 30 µM (inactive) | 3.79 µM (active) | > 30 µM (inactive) | CNC(=O)c1nn(C)c2c1C(C)(C)Cc1cnc(Nc3ccc(N4CCN(C)CC4)cc3)nc1-2 [MILCICLIB]
> 30 µM (inactive) | > 30 µM (inactive) | 22.5 µM (active) | 13.8 µM (active) |  |  | > 30 µM (inactive) | > 30 µM (inactive) | > 30 µM (inactive) | 0.422 µM (active) | 4.59 µM (active) | > 30 µM (inactive) | 0.022 µM (active) | > 30 µM (inactive) | CCS(=O)(=O)c1cccc(-c2cc(C(=O)NC3CCN(C)CC3)c(C)c3[nH]c4ncc(C)cc4c23)c1 [TAK-901]
> 30 µM (inactive) | > 30 µM (inactive) | > 30 µM (inactive) | > 30 µM (inactive) | > 30 µM (inactive) | > 30 µM (inactive) | > 30 µM (inactive) | > 30 µM (inactive) | > 30 µM (inactive) | > 30 µM (inactive) | > 30 µM (inactive) | > 30 µM (inactive) | > 30 µM (inactive) |  | Cn1ncc(Cl)c1-c1cc(C(=O)N[C@H](CN)Cc2ccc(F)c(F)c2)oc1Cl [UPROSERTIB]

Structure (SMILES) | Kd [1] | Kd [2] | Kd [3] | Kd [4] | Kd [5] | Kd [6] | Kd [7] | Kd [8] | Kd [9] | Kd [10] | Kd [11] | Kd [12] | Kd [13] | Kd [14]
CC(C)(C)c1nc(-c2cccc(NS(=O)(=O)c3c(F)cccc3F)c2F)c(-c2ccnc(N)n2)s1 [DABRAFENIB] | > 30 µM (inactive) | 0.184 µM (active) |  | > 30 µM (inactive) | > 30 µM (inactive) | > 30 µM (inactive) | > 30 µM (inactive) |  | 2 µM (active) | 0.305 µM (active) |  | > 30 µM (inactive) | 1.28 µM | 2.53 µM (active)
O=C(Nc1cc(C(F)(F)F)cc(C(F)(F)F)c1)c1cc(Cl)ccc1O [IMD-0354] | > 30 µM (inactive) | > 30 µM (inactive) |  | > 30 µM (inactive) | > 30 µM (inactive) | > 30 µM (inactive) | > 30 µM (inactive) | > 30 µM (inactive) | > 30 µM (inactive) | > 30 µM (inactive) | > 30 µM (inactive) | > 30 µM (inactive) | > 30 µM (inactive) | > 30 µM (inactive)
CCCCCCCCCCCCCCCCCCOP(=O)([O-])OC1CC[N+](C)(C)CC1 [PERIFOSINE] | > 30 µM (inactive) | > 30 µM (inactive) | > 30 µM (inactive) | > 30 µM (inactive) | > 30 µM (inactive) | > 30 µM (inactive) | > 30 µM (inactive) | > 30 µM (inactive) | > 30 µM (inactive) | > 30 µM (inactive) | > 30 µM (inactive) | > 30 µM (inactive) | > 30 µM (inactive) | 
CN1CCN(CCOc2cc(OC3CCOCC3)c3c(Nc4c(Cl)ccc5c4OCO5)ncnc3c2)CC1 [SARACATINIB] | > 30 µM (inactive) | 2.98 µM (active) | > 30 µM (inactive) | 4.4 µM (active) | > 30 µM (inactive) | > 30 µM (inactive) | > 30 µM (inactive) | > 30 µM (inactive) | 4.85 µM (active) |  |  | > 30 µM (inactive) |  | > 30 µM (inactive)
